From patent US20120058989A1, “ANTIBACTERIAL FLUOROQUINOLONE ANALOGS” (Achaogen, Inc., priority 2008, published 2012)

How the values were obtained:
Experiment in all cases: MIC, CLSI broth microdilution
Type in all cases: cell-based
[1] = system: S. pneumoniae ASPN1027 (Fluoroquinolone-resistant); settings: Table 2
Method: (§1) Minimum inhibitory concentrations (MIC) were determined by reference Clinical and Laboratory Standards Institute (CLSI) broth microdilution methods per M7-A7 [2006]. Quality control ranges utilizing E. coli ATCC 25922, P. aeruginosa ATCC 27853 and S. aureus ATCC 29213, and interpretive criteria for comparator agents were as published in CLSI M100-S17 [2007]. Briefly, serial two-fold dilutions of the test compounds were prepared at 2× concentration in Mueller Hinton Broth. The compound dilutions were mixed in 96-well assay plates in a 1:1 ratio with bacterial inoculum. The inoculum was prepared by suspension of a colony from an agar plate that was prepared the previous day. Bacteria were suspended in sterile saline and added to each assay plate to obtain a final concentration of 5×10^5 CFU/mL. The plates were incubated at 35° C. for 20 hours in ambient air.

[2] = system: S. aureus ASAU1031 (Fluoroquinolone-resistant); settings: Table 2
Method: as §1

[3] = system: A. baumannii AABA1009 (Fluoroquinolone-resistant); settings: Table 2
Method: as §1

[4] = system: S. pneumoniae ASPN001 (Fluoroquinolone-susceptible, ATCC49619); settings: Table 2
Method: as §1

[5] = system: S. aureus ASAU001 (Fluoroquinolone-susceptible, ATCC29213); settings: Table 2
Method: as §1

[6] = system: E. coli AECO066 (Fluoroquinolone-resistant); settings: Table 2
Method: as §1

[7] = system: E. coli AECO001 (Fluoroquinolone susceptible, ATCC25922); settings: Table 2, 35° C., 20 hours
Method: as §1

[8] = system: A. baumannii AABA1065 (Fluoroquinolone-susceptible); settings: Table 2
Method: as §1

[9] = system: P. aeruginosa APAE054 (Fluoroquinolone-resistant); settings: Table 2
Method: as §1

[10] = system: P. aeruginosa APAE001 (Fluoroquinolone-susceptible, ATCC27853); settings: Table 2
Method: as §1

Compound	MIC ASPN 1027 [1]	MIC ASAU 1031 [2]	MIC AABA 1009 [3]	MIC ASPN 001 [4]	MIC ASAU 001 [5]	MIC AECO 066 [6]	MIC AECO 001 [7]	MIC AABA 1065 [8]	MIC APAE 054 [9]	MIC APAE 001 [10]
O=C(O)c1cn(C2CC2)c2c3c(c(F)cc2c1=O)N1CCCC1CSC3 (stereo not drawn) [8/10, 13-Cyclopropyl-8-fluoro-10-oxo-3a,4,5,6,10,13-hexahydro-1H,3H-pyrrolo[2′,1′:3,4][1,4]thiazepino[5,6-h]quinoline-11-carboxylic acid]	C (MIC's of greater than 8.0 μg/mL = C)	C (MIC's of greater than 8.0 μg/mL = C)	C (MIC's of greater than 8.0 μg/mL = C)	C (MIC's of greater than 8.0 μg/mL = C)	A (MIC's of 1.0 μg/mL or less = A)	C (MIC's of greater than 8.0 μg/mL = C)	B (MIC's of greater than 1.0 μg/mL to 8.0 μg/mL = B)	B (MIC's of greater than 1.0 μg/mL to 8.0 μg/mL = B)	C (MIC's of greater than 8.0 μg/mL = C)	C (MIC's of greater than 8.0 μg/mL = C)
O=C(O)c1cn(C2CC2)c2c3c(c(F)cc2c1=O)N1CCCC1CS(=O)(=O)C3 (stereo not drawn) [8/12, 13-Cyclopropyl-8-fluoro-10-oxo-3a,4,5,6,10,13-hexahydro-1H,3H-pyrrolo[2′,1′:3,4][1,4]thiazepino[5,6-h]quinoline-11-carboxylic acid 2,2-dioxide]	C (MIC's of greater than 8.0 μg/mL = C)	C (MIC's of greater than 8.0 μg/mL = C)	C (MIC's of greater than 8.0 μg/mL = C)	C (MIC's of greater than 8.0 μg/mL = C)	B (MIC's of greater than 1.0 μg/mL to 8.0 μg/mL = B)	C (MIC's of greater than 8.0 μg/mL = C)	C (MIC's of greater than 8.0 μg/mL = C)	C (MIC's of greater than 8.0 μg/mL = C)	C (MIC's of greater than 8.0 μg/mL = C)	C (MIC's of greater than 8.0 μg/mL = C)
O=C(O)c1cn(C2CC2)c2c3c(c(F)cc2c1=O)N1CCCC1C[S+]([O-])C3 (stereo not drawn) [8/14, 13-Cyclopropyl-8-fluoro-10-oxo-3a,4,5,6,10,13-hexahydro-1H,3H-pyrrolo[2′,1′:3,4][1,4]thiazepino[5,6-h]quinoline-1′-carboxylic acid 2-oxide]	C (MIC's of greater than 8.0 μg/mL = C)	C (MIC's of greater than 8.0 μg/mL = C)	C (MIC's of greater than 8.0 μg/mL = C)	C (MIC's of greater than 8.0 μg/mL = C)	B (MIC's of greater than 1.0 μg/mL to 8.0 μg/mL = B)	C (MIC's of greater than 8.0 μg/mL = C)	B (MIC's of greater than 1.0 μg/mL to 8.0 μg/mL = B)	B (MIC's of greater than 1.0 μg/mL to 8.0 μg/mL = B)	C (MIC's of greater than 8.0 μg/mL = C)	C (MIC's of greater than 8.0 μg/mL = C)
O=C(O)c1cn(C2CC2)c2c3c(c(F)cc2c1=O)N1CCCC1C(=O)NC3 (stereo not drawn) [10/6, 13-Cyclopropyl-8-fluoro-3,10-dioxo-2,3,3a,4,5,6,10,13-octahydro-1H-pyrrolo[2′,1′:3,4][1,4]diazepino[5,6-h]quinoline-1′-carboxylic acid]	B (MIC's of greater than 1.0 μg/mL to 8.0 μg/mL = B)	B (MIC's of greater than 1.0 μg/mL to 8.0 μg/mL = B)	C (MIC's of greater than 8.0 μg/mL = C)	A (MIC's of 1.0 μg/mL or less = A)	A (MIC's of 1.0 μg/mL or less = A)	C (MIC's of greater than 8.0 μg/mL = C)	A (MIC's of 1.0 μg/mL or less = A)	B (MIC's of greater than 1.0 μg/mL to 8.0 μg/mL = B)	C (MIC's of greater than 8.0 μg/mL = C)	B (MIC's of greater than 1.0 μg/mL to 8.0 μg/mL = B)
O=C(O)c1cn(C2CC2)c2c3c(c(F)cc2c1=O)N1CCCC1COC3 (stereo not drawn) [11/8, 13-Cyclopropyl-8-fluoro-10-oxo-3a,4,5,6,10,13-hexahydro-1H,3H-pyrrolo[2′,1′:3,4][1,4]oxazepino[5,6-h]quinoline-11-carboxylic acid]	C (MIC's of greater than 8.0 μg/mL = C)	B (MIC's of greater than 1.0 μg/mL to 8.0 μg/mL = B)	C (MIC's of greater than 8.0 μg/mL = C)	A (MIC's of 1.0 μg/mL or less = A)	A (MIC's of 1.0 μg/mL or less = A)	C (MIC's of greater than 8.0 μg/mL = C)	A (MIC's of 1.0 μg/mL or less = A)	A (MIC's of 1.0 μg/mL or less = A)	C (MIC's of greater than 8.0 μg/mL = C)	C (MIC's of greater than 8.0 μg/mL = C)
O=C(O)c1cn(C2CC2)c2c3c(c(F)cc2c1=O)N1CCCC1CN=C3 (stereo not drawn) [12/4, 13-Cyclopropyl-8-fluoro-10-oxo-3a,4,5,6,10,13-hexahydro-3H-pyrrolo[2′,1′:3,4][1,4]diazepino[5,6-h]quinoline-11-carboxylic acid]	C (MIC's of greater than 8.0 μg/mL = C)	C (MIC's of greater than 8.0 μg/mL = C)	C (MIC's of greater than 8.0 μg/mL = C)	B (MIC's of greater than 1.0 μg/mL to 8.0 μg/mL = B)	A (MIC's of 1.0 μg/mL or less = A)	C (MIC's of greater than 8.0 μg/mL = C)	A (MIC's of 1.0 μg/mL or less = A)	C (MIC's of greater than 8.0 μg/mL = C)	C (MIC's of greater than 8.0 μg/mL = C)	B (MIC's of greater than 1.0 μg/mL to 8.0 μg/mL = B)
O=C(O)C(F)(F)F.O=C(O)c1cn(C2CC2)c2c3c(c(F)cc2c1=O)N1CCCC1CNC3 (stereo not drawn) [13/5, 13-Cyclopropyl-8-fluoro-10-oxo-2,3,3a,4,5,6,10,13-octahydro-1H-pyrrolo[2′,1′:3,4][1,4]diazepino[5,6-h]quinoline-11-carboxylic acid trifluoroacetate]	C (MIC's of greater than 8.0 μg/mL = C)	C (MIC's of greater than 8.0 μg/mL = C)	C (MIC's of greater than 8.0 μg/mL = C)	B (MIC's of greater than 1.0 μg/mL to 8.0 μg/mL = B)	A (MIC's of 1.0 μg/mL or less = A)	C (MIC's of greater than 8.0 μg/mL = C)	A (MIC's of 1.0 μg/mL or less = A)	A (MIC's of 1.0 μg/mL or less = A)	C (MIC's of greater than 8.0 μg/mL = C)	B (MIC's of greater than 1.0 μg/mL to 8.0 μg/mL = B)
CC(=O)N1Cc2c(c(F)cc3c(=O)c(C(=O)O)cn(C4CC4)c23)N2CCCC2C1 (stereo not drawn) [14/4, 2-Acetyl-13-cyclopropyl-8-fluoro-10-oxo-2,3,3a,4,5,6,10,13-octahydro-1H-pyrrolo[2′,1′:3,4][1,4]diazepino[5,6-h]quinoline-11-carboxylic acid]	C (MIC's of greater than 8.0 μg/mL = C)	C (MIC's of greater than 8.0 μg/mL = C)	C (MIC's of greater than 8.0 μg/mL = C)	C (MIC's of greater than 8.0 μg/mL = C)	C (MIC's of greater than 8.0 μg/mL = C)	C (MIC's of greater than 8.0 μg/mL = C)	B (MIC's of greater than 1.0 μg/mL to 8.0 μg/mL = B)	C (MIC's of greater than 8.0 μg/mL = C)	C (MIC's of greater than 8.0 μg/mL = C)	C (MIC's of greater than 8.0 μg/mL = C)
CN1Cc2c(c(F)cc3c(=O)c(C(=O)O)cn(C4CC4)c23)N2CCCC2C1.O=C(O)C(F)(F)F (stereo not drawn) [15/3, 13-Cyclopropyl-8-fluoro-2-methyl-10-oxo-2,3,3a,4,5,6,10,13-octahydro-1H-pyrrolo[2′,1′:3,4][1,4]diazepino[5,6-h]quinoline-11-carboxylic acid trifluoroacetate]	C (MIC's of greater than 8.0 μg/mL = C)	C (MIC's of greater than 8.0 μg/mL = C)	C (MIC's of greater than 8.0 μg/mL = C)	B (MIC's of greater than 1.0 μg/mL to 8.0 μg/mL = B)	A (MIC's of 1.0 μg/mL or less = A)	C (MIC's of greater than 8.0 μg/mL = C)	A (MIC's of 1.0 μg/mL or less = A)	A (MIC's of 1.0 μg/mL or less = A)	C (MIC's of greater than 8.0 μg/mL = C)	C (MIC's of greater than 8.0 μg/mL = C)
